Source: publication PMC6599797, “Functional characterization of three flavonoid glycosyltransferases from Andrographis paniculata” (Royal Society Open Science, 2019)

Legend:
Type in all cases: biochemical
ApUFGT2 [1] = biological target: T1, ApUFGT2 (Andrographis paniculata, UniProt A0A8E3S624); test: UPLC / Q-TOF-MS conversion assay; conditions: UDP-glucose 3200 µM, aglycone 320 µM; Tris-HCl pH 8.0, 40 °C, 6 h
T1 construct: gene UGT8
T1 sequence (A0A8E3S624 1-479): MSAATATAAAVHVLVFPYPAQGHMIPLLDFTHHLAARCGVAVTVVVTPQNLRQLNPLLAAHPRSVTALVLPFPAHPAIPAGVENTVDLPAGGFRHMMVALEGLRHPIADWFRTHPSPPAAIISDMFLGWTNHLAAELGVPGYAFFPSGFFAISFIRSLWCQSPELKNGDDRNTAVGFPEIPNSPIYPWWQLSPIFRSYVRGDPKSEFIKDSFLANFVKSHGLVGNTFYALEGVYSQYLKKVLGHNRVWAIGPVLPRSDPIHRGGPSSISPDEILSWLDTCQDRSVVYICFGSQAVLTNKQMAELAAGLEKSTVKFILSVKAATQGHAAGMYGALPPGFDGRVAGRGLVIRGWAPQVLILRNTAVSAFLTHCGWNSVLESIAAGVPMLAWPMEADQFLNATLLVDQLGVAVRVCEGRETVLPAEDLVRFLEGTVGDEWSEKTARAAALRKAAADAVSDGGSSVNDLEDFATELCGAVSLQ

ApUFGT1 [2] = biological target: T2, ApUFGT1 (Andrographis paniculata, UniProt A0A8E3MB50); test: UPLC / Q-TOF-MS conversion assay; conditions: UDP-glucose 3200 µM, aglycone 320 µM; Tris-HCl pH 8.0, 40 °C, 6 h
T2 construct: gene UGT2
T2 sequence (A0A8E3MB50 1-485): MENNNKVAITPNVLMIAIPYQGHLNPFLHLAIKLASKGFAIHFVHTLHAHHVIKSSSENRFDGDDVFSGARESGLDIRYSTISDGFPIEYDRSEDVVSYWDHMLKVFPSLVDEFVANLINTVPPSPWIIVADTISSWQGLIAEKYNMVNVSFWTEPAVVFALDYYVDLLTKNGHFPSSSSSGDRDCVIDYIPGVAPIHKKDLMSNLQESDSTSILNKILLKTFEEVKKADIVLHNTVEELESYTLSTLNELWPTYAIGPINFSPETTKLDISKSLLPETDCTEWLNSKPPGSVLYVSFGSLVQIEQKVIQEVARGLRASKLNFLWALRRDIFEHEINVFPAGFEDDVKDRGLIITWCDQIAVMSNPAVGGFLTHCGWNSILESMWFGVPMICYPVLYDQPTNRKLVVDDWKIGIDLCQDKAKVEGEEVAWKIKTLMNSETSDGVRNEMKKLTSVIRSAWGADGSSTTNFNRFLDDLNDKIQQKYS

ApUFGT3 [3] = biological target: T3, ApUFGT3 (Andrographis paniculata, UniProt A0A8E3S6A8); test: UPLC / Q-TOF-MS conversion assay; conditions: UDP-glucose 3200 µM, aglycone 320 µM; Tris-HCl pH 8.0, 40 °C, 6 h
T3 construct: gene UGT4
T3 sequence (A0A8E3S6A8 1-463): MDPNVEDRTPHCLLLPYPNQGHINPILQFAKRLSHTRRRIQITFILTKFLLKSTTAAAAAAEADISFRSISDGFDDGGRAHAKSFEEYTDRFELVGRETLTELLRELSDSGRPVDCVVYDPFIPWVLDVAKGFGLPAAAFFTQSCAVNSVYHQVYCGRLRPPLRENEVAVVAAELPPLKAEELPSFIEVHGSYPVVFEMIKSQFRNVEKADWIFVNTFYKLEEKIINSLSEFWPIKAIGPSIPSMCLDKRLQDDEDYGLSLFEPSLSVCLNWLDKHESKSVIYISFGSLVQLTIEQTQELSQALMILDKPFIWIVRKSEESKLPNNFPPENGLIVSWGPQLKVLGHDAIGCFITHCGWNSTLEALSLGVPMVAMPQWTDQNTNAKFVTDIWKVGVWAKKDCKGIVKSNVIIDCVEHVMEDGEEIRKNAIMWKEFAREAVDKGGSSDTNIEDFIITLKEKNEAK

ApUFGT2 [4] = biological target: T1, ApUFGT2; test: UPLC conversion assay; conditions: UDP-glucose donor; 50 mM Tris-HCl pH 8.0, 40 °C
ApUFGT3 [5] = biological target: T3, ApUFGT3; test: UPLC conversion assay; conditions: UDP-glucose donor; 50 mM Tris-HCl pH 8.0, 40 °C
ApUFGT1 [6] = biological target: T2, ApUFGT1; test: UPLC conversion assay; conditions: UDP-glucose donor; 50 mM Tris-HCl pH 8.0, 40 °C

SMILES	UPLC / Q-TOF-MS conversion assay (ApUFGT2 [1])	UPLC / Q-TOF-MS conversion assay (ApUFGT1 [2])	UPLC / Q-TOF-MS conversion assay (ApUFGT3 [3])	UPLC conversion assay (ApUFGT2 [4])	UPLC conversion assay (ApUFGT3 [5])	UPLC conversion assay (ApUFGT1 [6])
O=c1cc(-c2ccc(O)cc2)oc2cc(O)cc(O)c12 [compound 1, apigenin]	Product peak 1c was confirmed as apigetrin, namely, apigenin 7-O-glucoside	Product peak 1c was confirmed as apigetrin, namely, apigenin 7-O-glucoside	Product peak 1c was confirmed as apigetrin, namely, apigenin 7-O-glucoside			
COc1c(O)cc(O)c2c(=O)cc(-c3ccccc3)oc12 [wogonin]				glycosylation of wogonin catalysed by ApUFGTs	glycosylation of wogonin catalysed by ApUFGTs	glycosylation of wogonin catalysed by ApUFGTs
